# Assays:
# [1] = Inhibition of MraY in Staphylococcus aureus by fluorescence assay
# Staphylococcus aureus = experiment: Inhibition of MraY in Staphylococcus aureus at 1 mM by fluorescence assay relative to control
# [2] = Inhibition of Clostridium difficile phosphoglycosyl transferase; set-up: species or system Clostridioides difficile
# [3] = Inhibition of Campylobacter jejuni phosphoglycosyl transferase Pg1D
# [4] = Inhibition of Campylobacter concisus phosphoglycosyl transferase Pg1C
# [5] = system: Mycobacterium tuberculosis; experiment: Antimycobacterial activity against Mycobacterium tuberculosis H37Rv ATCC 27294 after 14 days by resazurin reduction microplate assay; type: functional; details: H37Rv ATCC 27294, 336 h
smiles,measurement,setting,value
CC(C)C[C@H](NC(=O)[C@H](CCCCN)NC(=O)N[C@H](C(=O)O)C(C)C)C(=O)NCCCN[C@@H](C[C@H]1O[C@@H](n2cc(F)c(=O)[nH]c2=O)[C@H](O)[C@@H]1O)C(=O)O,IC50,[1],> 100 µM
same,inhibition,Staphylococcus aureus,40%
O=c1ccn([C@@H]2O[C@H](CNc3c(NCc4cccc(F)c4)c(=O)c3=O)[C@@H](O)[C@H]2O)c(=O)[nH]1,IC50,[2],174 µM
O=C(Cn1cc(-c2cccc(F)c2)nn1)NC[C@H]1O[C@@H](n2ccc(=O)[nH]c2=O)[C@H](O)[C@@H]1O,IC50,[3],35 µM
CC(C)C[C@H](NC(=O)[C@H](CCCCN)NC(=O)N[C@H](C(=O)O)C(C)C)C(=O)NCCCN[C@@H](C[C@H]1O[C@@H](N2CCC(=O)NC2=O)[C@H](O)[C@@H]1O)C(=O)O,IC50,[1],27 µM
CC(C)[C@H](NC(=O)N[C@@H](CCCCN)C(=O)N[C@@H](C)C(=O)NCCCN[C@@H](C[C@H]1O[C@@H](n2ccc(=O)[nH]c2=O)[C@H](O)[C@@H]1O)C(=O)O)C(=O)O,IC50,[1],95 µM
CC(C)C[C@H](NC(=O)[C@H](CCCCN)NC(=O)N[C@H](C(=O)O)C(C)C)C(=O)NCCCN[C@@H](C[C@H]1O[C@@H](n2ccc(=O)[nH]c2=O)C[C@@H]1O)C(=O)O,IC50,[1],4.6 µM
COc1ccc2cc(-c3cn(CC(=O)N[C@@H](CCC(=O)O)C(=O)NC[C@H]4O[C@@H](n5ccc(=O)[nH]c5=O)[C@H](O)[C@@H]4O)nn3)ccc2c1,IC50,[4],116 µM
CC(C)C[C@H](NC(=O)[C@H](CCCCN)NC(=O)N[C@H](C(=O)O)C(C)C)C(=O)NCCCN[C@@H](C[C@H]1O[C@@H](n2ccc(=O)[nH]c2=O)[C@H](O)[C@@H]1O)C(=O)O,IC50,[1],2.5 µM
CC(C)C[C@H](NC(=O)[C@H](CCCCN)NC(=O)N[C@@H](C)C(=O)O)C(=O)NCCCN[C@@H](C[C@H]1O[C@@H](n2ccc(=O)[nH]c2=O)[C@H](O)[C@@H]1O)C(=O)O,IC50,[1],21 µM
CC(C)C[C@H](NC(=O)N[C@@H](Cc1c[nH]c2ccccc12)C(=O)O)C(=O)N[C@H](C(=O)NC[C@H]1C[C@@H](O)[C@H](n2ccc(=O)[nH]c2=O)O1)[C@H](C)N(C)C(=O)[C@@H](N)[C@@H](C)O,MIC50,[5],1.35 µM
CC(C)C[C@H](NC(=O)[C@H](C)NC(=O)N[C@H](C(=O)O)C(C)C)C(=O)NCCCN[C@@H](C[C@H]1O[C@@H](n2ccc(=O)[nH]c2=O)[C@H](O)[C@@H]1O)C(=O)O,IC50,[1],14 µM
CC(C)C[C@H](NC(=O)N[C@@H](Cc1c[nH]c2ccccc12)C(=O)O)C(=O)N[C@H](C(=O)NC[C@H]1C[C@@H](O)[C@H](n2ccc(=O)[nH]c2=O)O1)[C@H](C)N(C)C(=O)[C@@H](N)CC1CCCCC1,MIC50,[5],1 µM
O=C(O)CC[C@H](NC(=O)Cn1cc(-c2cccc(F)c2)nn1)C(=O)NC[C@H]1O[C@@H](n2ccc(=O)[nH]c2=O)[C@H](O)[C@@H]1O,IC50,[4],72 µM
C[C@@H]([C@H](NC(=O)[C@H](Cc1ccc(C(F)(F)F)cc1)NC(=O)N[C@@H](Cc1c[nH]c2ccccc12)C(=O)O)C(=O)NC[C@H]1C[C@@H](O)[C@H](n2ccc(=O)[nH]c2=O)O1)N(C)C(=O)CN,MIC50,[5],0.2 µM
Cc1cn([C@H]2C[C@H](O)[C@@H](C[C@H](NCCCNC(=O)[C@H](CC(C)C)NC(=O)[C@H](CCCCN)NC(=O)N[C@H](C(=O)O)C(C)C)C(=O)O)O2)c(=O)[nH]c1=O,IC50,[1],> 100 µM
same,inhibition,Staphylococcus aureus,38%

# From ChEMBL document CHEMBL4725382, “Uridine natural products: Challenging targets and inspiration for novel small molecule inhibitors” (Bioorg Med Chem, 2020)
